Measurements from the supplement of paper PMC10307832.

Key:
Assay in all cases: relative viability (nuclei count vs DMSO), 5 days (fraction); higher = more cells survive
Irinotecan + Lapatinib = compound: CCc1c2c(nc3ccc(OC(=O)N4CCC(N5CCCCC5)CC4)cc13)-c1cc3c(c(=O)n1C2)COC(=O)[C@]3(O)CC [Irinotecan] + CS(=O)(=O)CCNCc1ccc(-c2ccc3ncnc(Nc4ccc(OCc5cccc(F)c5)c(Cl)c4)c3c2)o1 [Lapatinib] (partner 2 µM)
Procedure, shortened: (§1)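 After 5 days of treatment, lung cancer cells in 1536-well plates were fixed and stained in a single step (final 0.05% Triton X-100, 1% formaldehyde, 1 ug/ml Hoechst) and their nuclei counted on 4× images. Treatment had been applied by pin tool the day after seeding as one drug alone or as a fixed anchor-drug dose with five library-drug doses (not always all listed) in √10 steps. Relative viability is the nuclei count of treated wells divided by that of vehicle wells, and values are medians of duplicate plates.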

Irinotecan + Crizotinib = compound: CCc1c2c(nc3ccc(OC(=O)N4CCC(N5CCCCC5)CC4)cc13)-c1cc3c(c(=O)n1C2)COC(=O)[C@]3(O)CC [Irinotecan] + C[C@@H](Oc1cc(-c2cnn(C3CCNCC3)c2)cnc1N)c1c(Cl)ccc(F)c1Cl [Crizotinib] (partner 1 µM)
Procedure, shortened: as §1

MK-8033 + Dasatinib = compound: Cn1cc(-c2cnc3ccc4ccc(CS(=O)(=O)NCc5ccccn5)cc4c(=O)c3c2)cn1 [MK-8033] + Cc1nc(Nc2ncc(C(=O)Nc3c(C)cccc3Cl)s2)cc(N2CCN(CCO)CC2)n1 [Dasatinib] (partner 0.075 µM)
Procedure, shortened: as §1

| Cell Line | relative viability (Irinotecan + Lapatinib; first compound 0.6325 µM) | relative viability (Irinotecan + Lapatinib; first compound 2 µM) | relative viability (Irinotecan + Lapatinib; first compound 6.325 µM) | relative viability (Irinotecan + Lapatinib; first compound 20 µM) | relative viability (Irinotecan + Crizotinib; first compound 0.6325 µM) | relative viability (Irinotecan + Crizotinib; first compound 2 µM) | relative viability (Irinotecan + Crizotinib; first compound 6.325 µM) | relative viability (Irinotecan + Crizotinib; first compound 20 µM) | relative viability (MK-8033 + Dasatinib; first compound 0.02 µM) | relative viability (MK-8033 + Dasatinib; first compound 0.06325 µM) | relative viability (MK-8033 + Dasatinib; first compound 0.2 µM) | relative viability (MK-8033 + Dasatinib; first compound 0.6325 µM) | relative viability (MK-8033 + Dasatinib; first compound 2 µM) |
| --- | --- | --- | --- | --- | --- | --- | --- | --- | --- | --- | --- | --- | --- |
| NCI-H460 | 0.287 | 0.475 | 0.0664 | 0.0537 | 0.709 | 0.239 | 0.0835 | 0.0573 | 0.481 | 0.409 | 0.48 | 0.501 | 0.484 |
| NCI-H522 | – | – | – | – | – | – | – | – | 0.776 | 0.696 | 0.815 | 1.07 | 0.818 |
| NCI-H1703 | 0.953 | 1.32 | 0.39 | 0.158 | 0.737 | 0.58 | 0.447 | 0.182 | – | – | – | – | – |
| NCI-H1793 | – | 0.547 | 0.253 | 0.235 | – | – | – | – | 0.425 | 0.388 | 0.394 | 0.365 | 0.338 |
| NCI-H596 | 1.11 | 1.03 | 0.613 | 0.579 | 0.945 | 0.924 | 0.741 | 0.68 | 0.55 | 0.535 | 0.586 | 0.626 | 0.455 |
| NCI-H2347 | 0.682 | 0.738 | 0.449 | 0.444 | 0.571 | 0.476 | 0.556 | 0.494 | 0.288 | 0.317 | 0.314 | 0.362 | 0.354 |
| 201T | – | 1.03 | 0.738 | 0.322 | – | 0.888 | 0.52 | 0.388 | 0.646 | 0.62 | 0.573 | 0.533 | 0.614 |
| NCI-H1650 | 0.386 | 0.51 | 0.401 | 0.152 | 0.918 | 1.23 | 0.391 | 0.179 | 0.27 | 0.254 | 0.275 | 0.325 | 0.272 |
| NCI-H1734 | 0.883 | 0.588 | 0.186 | 0.191 | 0.618 | 0.336 | 0.226 | 0.177 | 0.441 | 0.469 | 0.429 | 0.411 | 0.395 |
| SW 1573 | 0.965 | 1.11 | 0.326 | 0.195 | 0.626 | 0.43 | 0.189 | 0.197 | 0.444 | 0.508 | 0.502 | 0.424 | 0.466 |
| NCI-H1993 | 0.802 | 0.76 | 0.671 | 0.458 | 0.897 | 0.656 | 0.671 | 0.664 | 0.482 | 0.493 | 0.533 | 0.468 | 0.502 |
| NCI-H1755 | 0.883 | 0.9 | 0.309 | 0.318 | 0.712 | 0.497 | 0.332 | 0.451 | 0.41 | 0.382 | 0.415 | 0.421 | 0.443 |
| PC-14 | 0.314 | 0.262 | 0.15 | 0.16 | 0.873 | 0.695 | 0.2 | 0.194 | 0.254 | 0.181 | 0.246 | 0.232 | 0.245 |
| NCI-H358 | 0.406 | 0.47 | 0.327 | 0.21 | 0.497 | 0.431 | 0.484 | 0.139 | 0.15 | 0.149 | 0.198 | 0.163 | 0.175 |
